Source: patent US20030018061A1, “Novel remedies with the use of beta 3 agonist” (priority 2000, published 2003)

Experiments:
[1] = system: Mice fasted overnight, glucose loaded; assay: Antidiabetic effect (II): plasma glucose after glucose loading in fasted mice, glibenclamide and β3 agonist; assay type: in vivo; settings: 1 hour after glucose load (1 g/kg s.c.), oral GLI 10 mg/kg, compound a 10 mg/kg, d 0.3 mg/kg, e, g 3 mg/kg, i 1 mg/kg, vs glucose loading only
Protocol: Mice fasted overnight were orally administered with glibenclamide (GLI: 10 mg/kg), a β3 agonist (compound a: 10 mg/kg; compound c: 0.3 mg/kg; compound d: 0.3 mg/kg; compound e: 3 mg/kg; compound g: 3 mg/kg; compound h: 1 mg/kg; compound i: 1 mg/kg), or GLI and a β3 agonist (compound a, compound c, compound d, compound e, compound g, compound h, and compound i) in combination (each dosage was the same as the aforementioned), and immediately glucose (1 g/kg, subcutaneous injection) was loaded. Blood was collected after 1 hour, and the amount of glucose contained in blood plasma was measured.
In this combined use, hypoglycemia, which is a side effect of glibenclamide, was not observed.

[2] = system: Mice induced with obesity by feeding with a high fat diet; assay: Antiobestic effect (I): body weight of high fat diet obese mice, sibutramine and β3 agonist; assay type: in vivo; settings: oral, 2 weeks; SIB 1 mg/kg; compound c, d 0.3 mg/kg; e, g 3 mg/kg; h, i 1 mg/kg; alone or combined at same doses
Protocol: (§1) Mice induced with obesity by feeding with a high fat diet for 2 months were orally administered with sibutramine (SIB: 1 mg/kg), a β3 agonist (compound c: 0.3 mg/kg; compound d: 0.3 mg/kg; compound e: 3 mg/kg; compound g: 3 mg/kg; compound h: 1 mg/kg; compound i: 1 mg/kg), or SIB and a β3 agonist (compound c, compound d, compound e, compound g, compound h, and compound i) in combination (each dosage was the same as the aforementioned) for 2 weeks and bred, and body weight was measured.

[3] = system: human urinary bladder compression muscle; assay: Relaxation of carbachol-contracted human urinary bladder compression muscle; assay type: cell-based; settings: for relaxation of bladder compression muscle, combination with propiverine: 10^−6 M propiverine plus compound (a, b, f, g 10^−9 M; c, d 10^−10 M; e, h, i 10^−8 M); for relaxation of bladder compression muscle, combination with propiverine / relaxation of bladder compression muscle, combination with oxybutynin / relaxation of bladder compression muscle, combination with tolterodine: in comparison with each compound alone; for relaxation of bladder compression muscle, combination with oxybutynin: 10^−9 M oxybutynin plus compound (a, b, f, g 10^−9 M; c 10^−10 M; e, h, i 10^−8 M); for relaxation of bladder compression muscle, combination with tolterodine: 10^−9 M tolterodine plus compound (a, b, f, g 10^−9 M; d 10^−10 M; e, h, i 10^−8 M); for concentration at which the bladder compression muscle was significantly relaxed / concentration at which the muscle was not relaxed significantly: contraction provoked by carbachol (0.5×10^−6 M), each compound alone
Mice [4] = assay: Antidiabetic effect: plasma glucose in mice, insulin and β3 agonist; assay type: in vivo; settings: 30 min after dosing; INS 0.2 U/kg intraperitoneal; oral compound a 10 mg/kg; c, d 0.3 mg/kg; e, g 3 mg/kg; h, i 1 mg/kg; alone or combined
Protocol: Mice were administered with insulin (INS: 0.2 U/kg, intraperitoneal injection), a β3 agonist (oral administration of compound a: 10 mg/kg; compound c: 0.3 mg/kg; compound d: 0.3 mg/kg; compound e: 3 mg/kg; compound g: 3 mg/kg; compound h: 1 mg/kg; compound i: 1 mg/kg, respectively), or INS and a β3 agonist (compound a, compound c, compound d, compound e, compound g, compound h, and compound i) in combination (each dosage and administration route was the same as the aforementioned), blood was collected after 30 min, and the amount of glucose contained in blood plasma was measured.

[5] = system: Mice induced with obesity by feeding with a high fat diet; assay: Antiobestic effect (II): body weight of high fat diet obese mice, orlistat and β3 agonist; assay type: in vivo; settings: oral, 2 weeks; orlistat 1 mg/kg; compound c, d 0.3 mg/kg; e, g 3 mg/kg; h, i 1 mg/kg; alone or combined at same doses
Protocol: as §1, with “orlistat (1” for “sibutramine (SIB: 1”, “orlistat” for “SIB”

[6] = system: Genetically diabetic mice; assay: Antidiabetic effect (III): genetically diabetic mice, rosiglitazone and β3 agonist; assay type: in vivo; settings: oral, 2 weeks; ROS 1 mg/kg; compound c, d 0.3 mg/kg; e, g 3 mg/kg; h, i 1 mg/kg; alone or combined
Protocol: Genetically diabetic mice were orally administered with rosiglitazone (ROS: 1 mg/kg), a β3 agonist (compound c: 0.3 mg/kg; compound d: 0.3 mg/kg; compound e: 3 mg/kg; compound g: 3 mg/kg; compound h: 1 mg/kg; compound i: 1 mg/kg), or ROS and a β3 agonist (compound c, compound d, compound e, compound g, compound h, and compound i) in combination (each dosage was the same as the aforementioned) for 2 weeks. Blood was collected thereafter, and the amount of glucose contained in blood plasma was measured.

[7] = system: Genetically diabetic mice; assay: Antidiabetic effect (IV): genetically diabetic mice, acarbose and β3 agonist; assay type: in vivo; settings: oral, 2 weeks; ACA 1 mg/kg; compound c, d 0.3 mg/kg; e, g 3 mg/kg; h, i 1 mg/kg; alone or combined
Protocol: Genetically diabetic mice were orally administered with acarbose (ACA: 1 mg/kg), a β3 agonist (compound c: 0.3 mg/kg; compound d: 0.3 mg/kg; compound e: 3 mg/kg; compound g: 3 mg/kg; compound h: 1 mg/kg; compound i: 1 mg/kg), or ACA and a β3 agonist (compound c, compound d, compound e, compound g, compound h, and compound i) in combination (each dosage was the same as the aforementioned) for 2 weeks. Blood was collected thereafter, and the amount of glucose contained in blood plasma was measured.

Mice [8] = assay: Antilipemic effect (II): plasma triglyceride in mice, bezafibrate and β3 agonist; assay type: in vivo; settings: oral, 2 weeks; administered solely: BEZ 3 mg/kg; compound c, d 0.3 mg/kg; e, g 3 mg/kg; h, i 1 mg/kg
Protocol: Mice were orally administered with bezafibrate (BEZ: 3 mg/kg), a β3 agonist (compound c: 0.3 mg/kg; compound d: 0.3 mg/kg; compound e: 3 mg/kg; compound g: 3 mg/kg; compound h: 1 mg/kg; compound i: 1 mg/kg), or BEZ and a β3 agonist (compound c, compound d, compound e, compound g, compound h, and compound i) in combination (each dosage was the same as the aforementioned) for 2 weeks. Blood was collected thereafter, and the amount of triglyceride contained in blood plasma was measured.

Molecule | blood glucose level (glucose in blood plasma) [1] | body weight [2] | relaxation of bladder compression muscle, combination with propiverine [3] | relaxation of bladder compression muscle, combination with oxybutynin [3] | relaxation of bladder compression muscle, combination with tolterodine [3] | concentration at which the bladder compression muscle was significantly relaxed [3] | concentration at which the muscle was not relaxed significantly [3] | blood glucose level (glucose in blood plasma) (Mice [4]) | body weight [5] | blood glucose level (glucose in blood plasma) [6] | blood glucose level (glucose in blood plasma) [7] | plasma triglyceride level (Mice [8])
COc1ccc(Cl)cc1C(=O)NCCc1ccc(S(=O)(=O)NC(=O)NC2CCCCC2)cc1 [GLI, glibenclamide, reference compound] | almost no difference in the blood glucose level |  |  |  |  |  |  |  |  |  |  | 
CC(C)CC(N(C)C)C1(c2ccc(Cl)cc2)CCC1 (stereo not drawn) [SIB, sibutramine, reference compound] |  | almost no change in body weight |  |  |  |  |  |  |  |  |  | 
CS(=O)(=O)Nc1cccc([C@@H](O)CNCCOc2ccc3c(c2)[nH]c2cc(O)ccc23)c1 [compound a, (R)-N-[3-[2-[2-(7-hydroxy-9H-carbazole-2-iloxy)ethylamino]-1-hydroxyethyl]phenyl]methanesulfonamide] | almost no difference in the blood glucose level |  | relaxed significantly | relaxed significantly | relaxed significantly | 10^−7 M | 10^−9 M | no change in blood glucose level |  |  |  | 
CS(=O)(=O)Nc1cc([C@@H](O)CNCCOc2ccc3c4c([nH]c3c2)CCCC4)ccc1O [compound b, (R)-N-[5-[2-[2-(5,6,7,8-tetrahydro-9H-carbazole-2-iloxy)ethylamino]-1-hydroxyethyl]-2-hydroxyphenyl]methanesulfonamide] |  |  | relaxed significantly | relaxed significantly | relaxed significantly | 10^−7 M | 10^−9 M |  |  |  |  | 
CS(=O)(=O)Nc1cc([C@@H](O)CNCCOc2ccc3c(c2)sc2ccccc23)ccc1O [compound c, (R)-N-[5-[2-[2-(dibenzothiophene-3-iloxy)ethylamino]-1-hydroxyethyl]-2-hydroxyphenyl]methanesulfonamide] | almost no difference in the blood glucose level | almost no change in body weight | relaxed significantly | relaxed significantly | relaxed significantly | 10^−8 M | 10^−10 M | no change in blood glucose level | almost no change in body weight | no difference in the blood glucose level | no difference | no difference
CS(=O)(=O)Nc1cc([C@@H](O)CNCCOc2ccc3c(c2)[nH]c2ccccc23)ccc1O [compound d, (R)-N-[5-[2-[2-(9H-carbazole-2-iloxy)ethylamino]-1-hydroxyethyl]-2-hydroxyphenyl]methanesulfonamide] | almost no difference in the blood glucose level | almost no change in body weight | relaxed significantly | relaxed significantly | relaxed significantly | 10^−8 M | 10^−10 M | no change in blood glucose level | almost no change in body weight | no difference in the blood glucose level | no difference | no difference
CS(=O)(=O)Nc1cccc([C@@H](O)CNCCOc2ccc3c(c2)[nH]c2ccccc23)c1 [compound e, (R)-N-[3-[2-[2-(9H-carbazole-2-iloxy)ethylamino]-1-hydroxyethyl]phenyl]methanesulfonamide] | almost no difference in the blood glucose level | almost no change in body weight | relaxed significantly | relaxed significantly | relaxed significantly | 10^−6 M | 10^−8 M | no change in blood glucose level | almost no change in body weight | no difference in the blood glucose level | no difference | no difference
CN(C)S(=O)(=O)Nc1cc([C@@H](O)CNCCOc2ccc3c(c2)[nH]c2ccccc23)ccc1O [compound f, (R)-N′-[5-[2-[2-(9H-carbazole-2-iloxy)ethylamino]-1-hydroxyethyl]-2-hydroxyphenyl]-N,N-dimethyl sulfonyl amide] |  |  | relaxed significantly | relaxed significantly | relaxed significantly | 10^−7 M | 10^−9 M |  |  |  |  | 
CCCCCCCCCCC[C@@H](C[C@@H]1OC(=O)[C@H]1CCCCCC)OC(=O)[C@H](CC(C)C)NC=O [orlistat, reference compound] |  |  |  |  |  |  |  |  | almost no change in body weight |  |  | 
insulin [reference compound] |  |  |  |  |  |  |  | no change in blood glucose level |  |  |  | 
